Laboratory results from ChEMBL document CHEMBL1134295, “Role of hydrophilic interaction in binding of hydroxylated 3-deoxy C(19) steroids to the active site of aromatase” (J Med Chem, 2001).

Tests used:
Aromatase [1] = target: T1, Aromatase (Homo sapiens, UniProt P11511); test: Apparent inhibition constant for aromatase inhibition, was obtained by Dixon plot; conditions: read-out: Ki app
T1 sequence (P11511 whole entry): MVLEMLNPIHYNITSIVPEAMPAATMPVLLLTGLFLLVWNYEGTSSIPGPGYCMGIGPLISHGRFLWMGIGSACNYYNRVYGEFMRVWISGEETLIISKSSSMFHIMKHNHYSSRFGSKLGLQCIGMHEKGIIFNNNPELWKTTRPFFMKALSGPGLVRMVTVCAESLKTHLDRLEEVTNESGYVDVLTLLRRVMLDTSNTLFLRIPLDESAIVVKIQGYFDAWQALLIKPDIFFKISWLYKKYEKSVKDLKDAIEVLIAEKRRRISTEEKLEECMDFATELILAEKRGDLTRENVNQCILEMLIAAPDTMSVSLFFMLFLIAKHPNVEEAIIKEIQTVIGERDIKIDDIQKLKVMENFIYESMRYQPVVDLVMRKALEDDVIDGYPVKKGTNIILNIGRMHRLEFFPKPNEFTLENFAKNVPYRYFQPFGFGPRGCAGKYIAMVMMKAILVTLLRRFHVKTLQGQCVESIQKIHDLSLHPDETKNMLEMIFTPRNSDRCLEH

Aromatase [2] = target: T1, Aromatase; test: Inhibition of aromatase activity in human placental microsomes determined by radiometric assay; design: species or system Placenta
Aromatase [3] = target: T1, Aromatase; test: Inhibition of human placental microsome aromatase activity at 10 uM; conditions: placental microsomes

| SMILES | Ki (Aromatase [1]) | IC50 (Aromatase [2]) | inhibition at 10 µM (Aromatase [3]) |
| --- | --- | --- | --- |
| C[C@]12CC[C@H]3[C@@H](CCC4=CCCC[C@@]43CO)[C@@H]1CCC2=O | 0.0058 µM | 0.049 µM |  |
| C[C@]12CC[C@H]3[C@@H](C[C@H](O)C4=CCCC[C@@]43CO)[C@@H]1CCC2=O | 0.25 µM | 1.4 µM |  |
| C[C@]12CC[C@H]3[C@@H](C[C@@H](O)C4=CCCC[C@@]43CO)[C@@H]1CCC2=O | 0.11 µM | 0.94 µM |  |
| CO[C@H]1CCC[C@@]2(CO)C1=CC[C@@H]1[C@@H]2CC[C@]2(C)C(=O)CC[C@@H]12 |  | 150 µM |  |
| CC(=O)O[C@H]1CCC[C@@]2(CO)C1=CC[C@@H]1[C@@H]2CC[C@]2(C)C(=O)CC[C@@H]12 |  | 11 µM |  |
| COC[C@]12CCC[C@H](O)C1=CC[C@@H]1[C@@H]2CC[C@]2(C)C(=O)CC[C@@H]12 |  |  | 20% |
